Peptide text beside a SMILES is read from it. * marks the point of attachment. NH(β-GlcNAc) = CC(=O)N[C@@H]1[C@@H](O)[C@H](O)[C@@H](CO)O[C@H]1N*
Assays:
GLP-1 receptor [1] = target: T1, GLP-1 receptor (Homo sapiens, UniProt P43220); assay: Assay for production of cAMP
GLP-1 receptor [2] = target: T1, GLP-1 receptor
Method: After being incubated at room temperature for 2 hours, the solution was filtered through a unifilter 96GF/C plate (Perkin-Elmer) pretreated with 1% polyethylenimine containing 0.5% BSA, washed with 25 mM HEPES buffer solution (pH 7.4) containing 0.5% BSA, and radioactivity remained on the filter was measured by a gamma counter (Top Counter; Perkin-Elmer).

T1 sequence (P43220 24-463, species assumed): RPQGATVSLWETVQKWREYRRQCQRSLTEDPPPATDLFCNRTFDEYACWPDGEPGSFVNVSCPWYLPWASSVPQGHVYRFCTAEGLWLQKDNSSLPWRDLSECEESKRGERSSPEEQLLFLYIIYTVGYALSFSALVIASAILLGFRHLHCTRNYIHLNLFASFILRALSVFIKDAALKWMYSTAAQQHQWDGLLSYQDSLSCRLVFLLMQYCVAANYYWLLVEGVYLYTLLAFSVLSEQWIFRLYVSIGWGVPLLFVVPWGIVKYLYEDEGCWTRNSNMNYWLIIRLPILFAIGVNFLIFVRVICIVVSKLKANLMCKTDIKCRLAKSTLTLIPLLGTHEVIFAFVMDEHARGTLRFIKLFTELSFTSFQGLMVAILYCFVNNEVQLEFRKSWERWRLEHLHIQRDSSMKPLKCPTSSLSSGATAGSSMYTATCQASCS

In the case of `CC[C@H](C)[C@H](NC(=O)[C@H](Cc1ccccc1)NC(=O)[C@H](CS)NC(=O)[C@H](CCCNC(=N)N)NC(=O)[C@@H](NC(=O)[C@H](C)NC(=O)[C@H](CCC(=O)O)NC(=O)[C@H](CCC(=O)O)NC(=O)[C@H](CCC(=O)O)NC(=O)[C@H](CCSC)NC(=O)[C@H](CCC(N)=O)NC(=O)[C@H](CCCCN)NC(=O)[C@H](CO)NC(=O)[C@H](CC(C)C)NC(=O)[C@H](CC(=O)O)NC(=O)[C@H](CO)NC(=O)[C@@H](NC(=O)[C@H](Cc1ccccc1)NC(=O)[C@@H](NC(=O)CNC(=O)[C@H](CCC(=O)O)NC(=O)CNC(=O)[C@@H](N)Cc1c[nH]cn1)[C@@H](C)O)[C@@H](C)O)C(C)C)C(=O)N[C@@H](CCC(=O)O)C(=O)N[C@@H](Cc1c[nH]c2ccccc12)C(=O)N[C@@H](CC(C)C)C(=O)N[C@@H](CCCCN)C(=O)N[C@@H](CS)C(=O)NCC(=O)NCC(=O)N1CCC[C@H]1C(=O)N[C@@H](CO)C(=O)N[C@@H](CO)C(=O)NCC(=O)N[C@@H](CS)C(=O)N1CCC[C@H]1C(=O)N1CCC[C@H]1C(=O)N1CCC[C@H]1C(=O)N[C@@H](CO)C(=O)N[C@@H](CS)C(N)=O` [EX21283540C], the EC50 (GLP-1 receptor [1]) is reported as 0.055 nM.

`CC[C@H](C)[C@H](NC(=O)[C@H](Cc1ccccc1)NC(=O)[C@H](CCC(=O)O)NC(=O)[C@H](CCCCN)NC(=O)[C@H](C)NC(=O)[C@H](C)NC(=O)[C@H](CCC(N)=O)NC(=O)CNC(=O)[C@H](CCC(=O)O)NC(=O)[C@H](CC(C)C)NC(=O)[C@H](Cc1ccc(O)cc1)NC(=O)[C@H](CO)NC(=O)[C@H](CO)NC(=O)[C@@H](NC(=O)[C@H](CC(=O)O)NC(=O)[C@H](CO)NC(=O)[C@@H](NC(=O)[C@H](Cc1ccccc1)NC(=O)[C@@H](NC(=O)CNC(=O)[C@H](CCC(=O)O)NC(=O)[C@H](CC(=O)N[C@@H]1O[C@H](CO)[C@@H](O[C@@H]2O[C@H](CO)[C@H](O)[C@H](O)[C@H]2O)[C@H](O)[C@H]1NC(C)=O)NC(=O)[C@@H](N)Cc1c[nH]cn1)[C@@H](C)O)[C@@H](C)O)C(C)C)C(=O)N[C@@H](C)C(=O)N[C@@H](Cc1c[nH]c2ccccc12)C(=O)N[C@@H](CC(C)C)C(=O)N[C@H](C(=O)N[C@@H](CCCCN)C(=O)NCC(=O)N[C@@H](CCCNC(=N)N)C(N)=O)C(C)C` [GL08NL] was tested, and the IC50 (GLP-1 receptor [2]) was over 100 nM and the EC50 (GLP-1 receptor [1]) was 284 nM.

With `CC[C@H](C)[C@H](NC(=O)[C@H](Cc1ccccc1)NC(=O)[C@H](CCC(=O)O)NC(=O)[C@H](CCCCN)NC(=O)[C@H](C)NC(=O)[C@H](C)NC(=O)[C@H](CCC(N)=O)NC(=O)CNC(=O)[C@H](CCC(=O)O)NC(=O)[C@H](CC(C)C)NC(=O)[C@H](CC(=O)N[C@@H]1O[C@H](CO)[C@@H](O)[C@H](O)[C@H]1NC(C)=O)NC(=O)[C@H](CO)NC(=O)[C@H](CO)NC(=O)[C@@H](NC(=O)[C@H](CC(=O)O)NC(=O)[C@H](CO)NC(=O)[C@@H](NC(=O)[C@H](Cc1ccccc1)NC(=O)[C@@H](NC(=O)CNC(=O)[C@H](CCC(=O)O)NC(=O)[C@H](C)NC(=O)[C@@H](N)Cc1c[nH]cn1)[C@@H](C)O)[C@@H](C)O)C(C)C)C(=O)N[C@@H](C)C(=O)N[C@@H](Cc1c[nH]c2ccccc12)C(=O)N[C@@H](CC(C)C)C(=O)N[C@H](C(=O)N[C@@H](CCCCN)C(=O)NCC(=O)N[C@@H](CCCNC(=N)N)C(N)=O)C(C)C` [GL19NG] (H-HAEGTFTSDVSSD(NH(β-GlcNAc))LEGQAAKEFIAWLVKGR-NH2) the IC50 (GLP-1 receptor [2]) was 41 nM and the EC50 (GLP-1 receptor [1]) was 8.1 nM.

With `CC[C@H](C)[C@H](NC(=O)[C@H](Cc1ccccc1)NC(=O)[C@H](CCC(=O)O)NC(=O)[C@H](CC(N)=O)NC(=O)[C@H](C)NC(=O)[C@H](C)NC(=O)[C@H](CCC(N)=O)NC(=O)CNC(=O)[C@H](CCC(=O)O)NC(=O)[C@H](CC(C)C)NC(=O)[C@H](Cc1ccc(O)cc1)NC(=O)[C@H](CO)NC(=O)[C@H](CO)NC(=O)[C@@H](NC(=O)[C@H](CC(=O)O)NC(=O)[C@H](CO)NC(=O)[C@@H](NC(=O)[C@H](Cc1ccccc1)NC(=O)[C@@H](NC(=O)CNC(=O)[C@H](CCC(=O)O)NC(=O)[C@H](C)NC(=O)[C@@H](N)Cc1c[nH]cn1)[C@@H](C)O)[C@@H](C)O)C(C)C)C(=O)N[C@@H](C)C(=O)N[C@@H](Cc1c[nH]c2ccccc12)C(=O)N[C@@H](CC(C)C)C(=O)N[C@H](C(=O)N[C@@H](CCCCN)C(=O)NCC(=O)N[C@@H](CCCNC(=N)N)C(N)=O)C(C)C` [GL26N] the EC50 (GLP-1 receptor [1]) was 0.09 nM.

With `CC[C@H](C)[C@H](NC(=O)[C@H](Cc1ccccc1)NC(=O)[C@H](CCC(=O)O)NC(=O)[C@H](CCCCN)NC(=O)[C@H](C)NC(=O)[C@H](C)NC(=O)[C@H](CCC(N)=O)NC(=O)CNC(=O)[C@H](CCC(=O)O)NC(=O)[C@H](CC(C)C)NC(=O)[C@H](Cc1ccc(O)cc1)NC(=O)[C@H](CO)NC(=O)[C@H](CO)NC(=O)[C@@H](NC(=O)[C@H](CC(=O)O)NC(=O)[C@H](CO)NC(=O)[C@@H](NC(=O)[C@H](Cc1ccccc1)NC(=O)[C@@H](NC(=O)CNC(=O)[C@H](CCC(=O)O)NC(=O)[C@H](C)NC(=O)[C@@H](N)Cc1c[nH]cn1)[C@@H](C)O)[C@@H](C)O)C(C)C)C(=O)N[C@@H](C)C(=O)N[C@@H](Cc1c[nH]c2ccccc12)C(=O)N[C@@H](CC(C)C)C(=O)N[C@H](C(=O)N[C@@H](CC(=O)N[C@@H]1O[C@H](CO)[C@@H](O[C@@H]2O[C@H](CO)[C@@H](O[C@@H]3O[C@H](CO[C@H]4O[C@H](CO)[C@@H](O)[C@H](O)[C@@H]4O[C@@H]4O[C@H](CO)[C@@H](O[C@@H]5O[C@H](CO[C@]6(C(=O)O)C[C@H](O)[C@@H](NC(C)=O)[C@H]([C@H](O)[C@H](O)CO)O6)[C@H](O)[C@H](O)[C@H]5O)[C@H](O)[C@H]4NC(C)=O)[C@@H](O)[C@H](O[C@H]4O[C@H](CO)[C@@H](O)[C@H](O)[C@@H]4O[C@@H]4O[C@H](CO)[C@@H](O[C@@H]5O[C@H](CO[C@]6(C(=O)O)C[C@H](O)[C@@H](NC(C)=O)[C@H]([C@H](O)[C@H](O)CO)O6)[C@H](O)[C@H](O)[C@H]5O)[C@H](O)[C@H]4NC(C)=O)[C@@H]3O)[C@H](O)[C@H]2NC(C)=O)[C@H](O)[C@H]1NC(C)=O)C(=O)NCC(=O)N[C@@H](CCCNC(=N)N)C(N)=O)C(C)C` [GL34NE1] the IC50 (GLP-1 receptor [2]) was 2.7 nM.

`CC[C@H](C)[C@H](NC(=O)[C@H](Cc1ccccc1)NC(=O)[C@H](CCC(=O)O)NC(=O)[C@H](CCCCN)NC(=O)[C@H](C)NC(=O)[C@H](C)NC(=O)[C@H](CCC(N)=O)NC(=O)CNC(=O)[C@H](CCC(=O)O)NC(=O)[C@H](CC(C)C)NC(=O)[C@H](Cc1ccc(O)cc1)NC(=O)[C@H](CO)NC(=O)[C@H](CO)NC(=O)[C@@H](NC(=O)[C@H](CC(=O)O)NC(=O)[C@H](CO)NC(=O)[C@@H](NC(=O)[C@H](Cc1ccccc1)NC(=O)[C@@H](NC(=O)CNC(=O)[C@H](CCC(=O)O)NC(=O)[C@H](C)NC(=O)[C@@H](N)Cc1c[nH]cn1)[C@@H](C)O)[C@@H](C)O)C(C)C)C(=O)N[C@@H](C)C(=O)N[C@@H](Cc1c[nH]c2ccccc12)C(=O)N[C@@H](CC(C)C)C(=O)N[C@H](C(=O)N[C@@H](CC(=O)N[C@@H]1O[C@H](CO)[C@@H](O[C@@H]2O[C@H](CO[C@]3(C(=O)O)C[C@H](O)[C@@H](NC(C)=O)[C@H]([C@H](O)[C@H](O)CO)O3)[C@H](O)[C@H](O)[C@H]2O)[C@H](O)[C@H]1NC(C)=O)C(=O)NCC(=O)N[C@@H](CCCNC(=N)N)C(N)=O)C(C)C` [GL34NS6] showed an IC50 (GLP-1 receptor [2]) of 0.7 nM.

Source: patent US20100016547A1, “Glycosilated Peptide and Medicine Comprising It as an Effective Ingredient” (priority 2005, published 2010)
